Literature values, collected in patent US20250281453A1, “COMBINATION THERAPIES COMPRISING QTX125” (QUIMATRYX, S.L., priority 2022, published 2025).

Tested on: multiple sclerosis mice models
Details: two different multiple sclerosis mice models; cited from earlier work

With O=C(NO)c1ccc(CNC(=O)c2[nH]c(-c3ccc(O)cc3)cc2-c2ccoc2)cc1 [QTX125, 3-(3-Furyl)-N-{4-[(hydroxyamino)carbonyl]benzyl}-5-(4-hydroxyphenyl)-1 Hpyrrole-2-carboxamide] as the molecule, how does the “efficacy in multiple sclerosis mice models” value read?
The value was “high efficacy”.
